How the values were obtained:
[1] = test system: Kaposi's sarcoma associated herpesvirus (KSHV) lytic replication; test: in vitro; format: cell-based; settings: human; CC50 (iSLK.219 cells) / IC50 (KSHV lytic replication); read-out: Selective Index (CC50/IC50)
From the text: (§1) Human gamma herpes viruses such as Kaposi’s sarcoma-associated herpes virus (KSHV) is a type of pathogenic virus related to Kaposi’s sarcoma, like epidemic KS, posttransplant KS, multicentric Castleman’s disease, and primary effusion lymphoma. Anti-infection towards lytic replication of KSHV plays a pivotal role as decreased a risk of KS, which were evidenced in cases of AIDS-associated epidemic KS patients. In our exhaustive study to explore bioactivities of metabolites, an inhibition assay on lytic replication of KSHV was investigated for compounds 1 and 2 referring to the previous experiments. […] The details of the dose-dependent manner were shown in Figure S1, Supplementary Materials. More elaborate procedures of anti-KSHV assay were also stated in Supplementary Materials.
(§2) Figure 5 The effects of positive control cidofovir (CDV), 1 and 2 on human iSLK.219 cells viabilities and on lytic replication of KSHV infecting Vero cells were measured in vitro.
(§3) Human iSLK.219 cells were used to determine the antiviral activity of desired compounds against KSHV. The cells harbor the rKSHV.219 virus that encodes green fluorescent protein (GFP) under control of the elongation factor 1α promoter (EF-1α) and lytic replication of KSHV was reactivated with 1 µg/mL doxycycline (Dox) (Beyotime) and 1.2 mM sodium butyrate (NaB) (Sigama). Cells grown to 70% confluence 96-well tissue culture plates were treated with indicated concentrations of compounds in present of Dox and NaB. Then cell viability was assessed at 48 h post drugs-induction by AlamarBlue® Cell Viability Assay (Invitrogen) according to the manufacturer’s protocol. The luminescent signal was measured using the Envison 2102 Multilabel Reader (Perkin Elmer, Waltham, MA, USA). The 50% cytotoxic concentration (CC50) for each compound was calculated from these dose-response curves using Graphpad5.0 Prism. The results were presented as mean values with standard deviations (n = 3) […]
(§4) The antiviral effects of compounds on KSHV were determined by infectivity assay as previously described. The supernatants from iSLK.219-treated or untreated with the compounds in the presence of Dox and NaB were collected at 48 h. Then, the supernatants were used to infect the Vero cells seeded in a 96-well plate as previously reported using centrifugation at 1500× g for 60 min [4]. The supernatants were then removed and replaced with flash DMEM medium. At 48 h, the expression of GFP per well in Vero cells was detected and analyzed using the Operetta High-Content Screening System (HCS) (Perkin Elmer). Nine image fields per well were recorded by the automated microscope based HCS and the GFP intensity per well was calculated using the Harmony 3.5 software (Perkin Elmer). Data were normalized as the fold change compared to the DMSO control. The IC50 (50% effective concentration) values correspond to compound concentrations required to reduce quantitative expression of the intensity of GFP by 50%. The results are presented as the mean values with […]
(§5) Figure S1. HRESIMS spectrum of japopyrone A (1).

[2] = test system: Kaposi’s sarcoma associated herpesvirus (KSHV); test: microbe, parasite or virus in culture; format: cell-based; settings: Human gammaherpesvirus 8, Vero, 48 h
From the text: as §1, §2, §3, §4, §5

[3] = Cell viability of iSLK.219 cells (AlamarBlue Cell Viability Assay); format: cell-based; settings: iSLK.219 cells harbouring rKSHV.219 virus, human iSLK.219 cells, in presence of Dox and NaB
Method: as §2, §3
as §4, with “control.” for “control. The IC50 (50% effective concentration) values correspond to compound concentrations required to reduce quantitative expression of the intensity of GFP by 50%. The results are presented as the mean values with”

[4] = Cytotoxicity assay against human cancer cell line HL-60; format: cell-based; settings: HL-60 cells
From the text: (§6) Natural products have provided a rich resource for the discovery of new drugs, innovative therapeutic agents, and lead structures. In our studious research towards the discovery for new lead compounds and useful bioactivities from Chinese traditional herbs, several bioactivity screenings such as cytotoxicity assays against five human cancer cell lines (HL-60, SMMC-7721, A-549, MCF-7, and SW480), inhibitory activities on NO production, and inhibitory activities on β-site amyloid precursor protein cleaving enzyme 1 (BACE1), were carried out for compounds 1 and 2.

[5] = Cytotoxicity assay against human cancer cell line SMMC-7721; format: cell-based; settings: SMMC-7721 cells
From the text: as §6

[6] = Cytotoxicity assay against human cancer cell line A-549; format: cell-based; settings: A-549 cells
From the text: as §6

[7] = Cytotoxicity assay against human cancer cell line MCF-7; format: cell-based; settings: MCF-7 cells
From the text: as §6

[8] = Cytotoxicity assay against human cancer cell line SW480; format: cell-based; settings: SW480 cells
From the text: as §6

NO production = NO production inhibition assay; format: cell-based
From the text: as §6

[9] = biological target: β-site amyloid precursor protein cleaving enzyme 1 (BACE1) (Homo sapiens, UniProt P56817); test: BACE1 inhibition assay; format: biochemical
β-site amyloid precursor protein cleaving enzyme 1 (BACE1), sequence (P56817 22-501 limits assumed, species assumed): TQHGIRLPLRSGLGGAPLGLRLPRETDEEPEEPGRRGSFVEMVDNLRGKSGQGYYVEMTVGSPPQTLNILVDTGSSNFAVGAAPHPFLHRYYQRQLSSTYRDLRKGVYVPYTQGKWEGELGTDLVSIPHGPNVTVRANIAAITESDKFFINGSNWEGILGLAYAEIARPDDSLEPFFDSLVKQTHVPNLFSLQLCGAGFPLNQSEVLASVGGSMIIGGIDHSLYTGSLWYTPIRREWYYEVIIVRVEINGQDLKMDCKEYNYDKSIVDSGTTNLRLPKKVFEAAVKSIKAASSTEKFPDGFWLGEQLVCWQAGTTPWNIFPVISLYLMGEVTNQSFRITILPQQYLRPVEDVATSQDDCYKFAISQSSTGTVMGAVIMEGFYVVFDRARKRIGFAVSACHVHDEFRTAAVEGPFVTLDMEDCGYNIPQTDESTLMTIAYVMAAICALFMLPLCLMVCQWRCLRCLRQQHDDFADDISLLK
From the text: as §6

Compound	selectivity ratio at 48 h [1]	IC50 [2] [µM]	CC50 at 48 h [3] [µM]	IC50 [4] [µM]	IC50 [5] [µM]	IC50 [6] [µM]	IC50 [7] [µM]	IC50 [8] [µM]	IC50 (NO production) [µM]	IC50 [9] [µM]
COc1ccc(-c2cc3c(c(=O)o2)C(C)(C)[C@H](C)O3)cc1OC [Compound 2, japopyrone B]	> 6.79	29.5	> 200	> 40	> 40	> 40	> 40	> 40	> 25	> 40
Nc1ccn(C[C@@H](CO)OCP(=O)(O)O)c(=O)n1 [CDV, cidofovir, reference compound]	> 250	< 0.004	> 1							
COc1cc(-c2cc3c(c(=O)o2)C(C)(C)[C@H](C)O3)ccc1O [Compound 1, japopyrone A]	> 2.34	85.3	> 200	> 40	> 40	> 40	> 40	> 40	> 25	> 40
